Experimental data reported in PubChem BioAssay AID2060513 (Molecular Pharmacology Branch, DTP, NCI, 2025).

Test system: 299254-011-R-J1-PDC complex spheroids viability
Assay: Anticancer human tumor 299254-011-R-J1-PDC patient-derived melanoma cell line growth inhibition [GQUAD]
Conditions: for IC50: curve of first compound; for viability, T/C: stronger effect = lower value; active means viability on the fitted dose curve at most 10% of control; inactive means the rest
Procedure, shortened: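 Tumor cells were grown as complex spheroids with HUVEC endothelial cells and mesenchymal stem cells as stroma. G-quadruplex stabilizers were combined with targeted agents over half-log dilutions from near the clinical Cmax, or from 10 microM.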

[1] = second compound 0.0316 µM, first compound 0.0316 µM
[2] = second compound 0.0316 µM, first compound 0.1 µM
[3] = second compound 0.0316 µM, first compound 0.316 µM
[4] = second compound 0.0316 µM, first compound 1 µM
[5] = second compound 0.0316 µM, first compound 3.16 µM
[6] = second compound 0.0316 µM, first compound 10 µM
[7] = second compound 0.1 µM, first compound 0.0316 µM
[8] = second compound 0.1 µM, first compound 0.1 µM
[9] = second compound 0.1 µM, first compound 0.316 µM
[10] = second compound 0.1 µM, first compound 1 µM
[11] = second compound 0.1 µM, first compound 3.16 µM
[12] = second compound 0.1 µM, first compound 10 µM
[13] = second compound 0.316 µM, first compound 0.0316 µM
[14] = second compound 0.316 µM, first compound 0.1 µM
[15] = second compound 0.316 µM, first compound 0.316 µM
[16] = second compound 0.316 µM, first compound 1 µM
[17] = second compound 0.316 µM, first compound 3.16 µM
[18] = second compound 0.316 µM, first compound 10 µM
[19] = second compound 1 µM, first compound 0.0316 µM
[20] = second compound 1 µM, first compound 0.1 µM
[21] = second compound 1 µM, first compound 0.316 µM
[22] = second compound 1 µM, first compound 1 µM
[23] = second compound 1 µM, first compound 3.16 µM
[24] = second compound 1 µM, first compound 10 µM
[25] = second compound 3.16 µM, first compound 0.0316 µM
[26] = second compound 3.16 µM, first compound 0.1 µM
[27] = second compound 3.16 µM, first compound 0.316 µM
[28] = second compound 3.16 µM, first compound 1 µM
[29] = second compound 3.16 µM, first compound 3.16 µM
[30] = second compound 3.16 µM, first compound 10 µM
[31] = second compound 10 µM, first compound 0.0316 µM
[32] = second compound 10 µM, first compound 0.1 µM
[33] = second compound 10 µM, first compound 0.316 µM
[34] = second compound 10 µM, first compound 1 µM
[35] = second compound 10 µM, first compound 3.16 µM
[36] = second compound 10 µM, first compound 10 µM
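Further: spheroids exposed to the agents for seven days before readout.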
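Wherever viability, T/C is given: percent viability relative to DMSO vehicle control wells = 100%.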

CC(C)n1c(=O)n(C)c2cnc3cc(F)c(-c4ccc(OCCCN5CCCCC5)nc4)cc3c21 + Cc1cnc(CNC(=O)c2c(=O)c3ccc(N4CCCN(C)CC4)nc3n3c2sc2ccccc23)cn1
7380 nM: IC50 (second compound 0.1 µM)
2380 nM: IC50 (second compound 0.316 µM)
1360 nM: IC50 (second compound 3.16 µM)
inactive: viability, T/C [1] 94.4% | viability, T/C [2] 79.1% | viability, T/C [3] 85.8% | viability, T/C [4] 73% | viability, T/C [5] 69.7% | viability, T/C [6] 51% | viability, T/C [7] 96.9% | viability, T/C [8] 96.4% | viability, T/C [9] 77.3% | viability, T/C [10] 87.8% | viability, T/C [11] 63.1% | viability, T/C [12] 44.4% | viability, T/C [13] 77.4% | viability, T/C [14] 87.2% | viability, T/C [15] 65.2% | viability, T/C [16] 55.7% | viability, T/C [17] 53% | viability, T/C [18] 39.5% | viability, T/C [19] 56.4% | viability, T/C [20] 56.6% | viability, T/C [21] 66.9% | viability, T/C [22] 54.7% | viability, T/C [23] 58.1% | viability, T/C [24] 22.4% | viability, T/C [25] 55.4% | viability, T/C [26] 78.3% | viability, T/C [27] 64% | viability, T/C [28] 53.5% | viability, T/C [29] 35.6% | viability, T/C [30] 13.6%
> 10000 nM: IC50 (second compound 0.0316 µM)
< 31.6 nM: IC50 (second compound 10 µM)
4090 nM: IC50 (second compound 1 µM)
active: viability, T/C [31] 0.37% | viability, T/C [32] 12.4% | viability, T/C [33] 12.2% | viability, T/C [34] 3.21% | viability, T/C [35] 0.36% | viability, T/C [36] 0.31%

CC1COCCN1c1cc(-c2ccnn2C)c2ccnc(-c3ccn[nH]3)c2n1 (stereo not drawn) + Cc1cnc(CNC(=O)c2c(=O)c3ccc(N4CCCN(C)CC4)nc3n3c2sc2ccccc23)cn1
114 nM: IC50 (second compound 0.0316 µM)
121 nM: IC50 (second compound 0.1 µM)
inactive: viability, T/C [1] 99.1% | viability, T/C [2] 48.2% | viability, T/C [3] 37.9% | viability, T/C [4] 17.6% | viability, T/C [5] 20% | viability, T/C [6] 13.2% | viability, T/C [7] 84.5% | viability, T/C [8] 55.3% | viability, T/C [9] 23.4% | viability, T/C [10] 14.4% | viability, T/C [11] 17.2% | viability, T/C [12] 12.9% | viability, T/C [13] 40.9% | viability, T/C [14] 32.9% | viability, T/C [15] 23.6% | viability, T/C [16] 17.5% | viability, T/C [17] 16.8% | viability, T/C [18] 12.6% | viability, T/C [19] 22% | viability, T/C [20] 22.2% | viability, T/C [21] 22.3% | viability, T/C [22] 18.8% | viability, T/C [23] 13% | viability, T/C [24] 15.2% | viability, T/C [25] 26.5% | viability, T/C [26] 26.2% | viability, T/C [27] 18% | viability, T/C [28] 13.4% | viability, T/C [29] 14.9% | viability, T/C [30] 16.7%
active: viability, T/C [31] 0.18% | viability, T/C [32] 0.22% | viability, T/C [33] 2.32% | viability, T/C [34] 0.18% | viability, T/C [35] 0.23% | viability, T/C [36] 0.22%
< 31.6 nM: IC50 (second compound 0.316 µM) | IC50 (second compound 1 µM) | IC50 (second compound 3.16 µM) | IC50 (second compound 10 µM)

CC1COCCN1c1cc(C2(O)CC3CCC(C2)O3)c2cnn(-c3ccn[nH]3)c2n1 (stereo not drawn) + Cc1cnc(CNC(=O)c2c(=O)c3ccc(N4CCCN(C)CC4)nc3n3c2sc2ccccc23)cn1
104 nM: IC50 (second compound 0.1 µM)
89.3 nM: IC50 (second compound 0.0316 µM)
inactive: viability, T/C [1] 94.4% | viability, T/C [2] 41.6% | viability, T/C [3] 28.7% | viability, T/C [4] 11.4% | viability, T/C [7] 58.6% | viability, T/C [8] 51.5% | viability, T/C [9] 18.6% | viability, T/C [13] 31.4% | viability, T/C [14] 32% | viability, T/C [15] 14.3% | viability, T/C [16] 15.9% | viability, T/C [19] 22.3% | viability, T/C [20] 21% | viability, T/C [21] 17.1% | viability, T/C [22] 12.8% | viability, T/C [23] 14.8% | viability, T/C [25] 18.8% | viability, T/C [26] 22.3% | viability, T/C [27] 17.1% | viability, T/C [28] 10.6% | viability, T/C [29] 13.1%
active: viability, T/C [5] 13% | viability, T/C [6] 3.95% | viability, T/C [10] 14.1% | viability, T/C [11] 9.97% | viability, T/C [12] 4.33% | viability, T/C [17] 11% | viability, T/C [18] 4.06% | viability, T/C [24] 6.33% | viability, T/C [30] 7.02% | viability, T/C [31] 0.16% | viability, T/C [32] 0.22% | viability, T/C [33] 0.23% | viability, T/C [34] 0.17% | viability, T/C [35] 0.29% | viability, T/C [36] 0.23%
< 31.6 nM: IC50 (second compound 0.316 µM) | IC50 (second compound 1 µM) | IC50 (second compound 3.16 µM) | IC50 (second compound 10 µM)

O=C(c1cc(Cc2n[nH]c(=O)c3ccccc23)ccc1F)N1CCN(C(=O)C2CC2)CC1 + Cc1cnc(CNC(=O)c2c(=O)c3ccc(N4CCCN(C)CC4)nc3n3c2sc2ccccc23)cn1
inactive: viability, T/C [1] 99.3% | viability, T/C [2] 92.8% | viability, T/C [3] 94.1% | viability, T/C [4] 83.4% | viability, T/C [5] 87.2% | viability, T/C [6] 81.5% | viability, T/C [7] 102% | viability, T/C [8] 99.8% | viability, T/C [9] 89.7% | viability, T/C [10] 98.4% | viability, T/C [11] 117% | viability, T/C [12] 81.6% | viability, T/C [13] 81.6% | viability, T/C [14] 97.2% | viability, T/C [15] 91.3% | viability, T/C [16] 102% | viability, T/C [17] 103% | viability, T/C [18] 73.9% | viability, T/C [19] 78% | viability, T/C [20] 79.5% | viability, T/C [21] 82.7% | viability, T/C [22] 73.5% | viability, T/C [23] 75.6% | viability, T/C [24] 66% | viability, T/C [25] 67.1% | viability, T/C [26] 91.5% | viability, T/C [27] 93.7% | viability, T/C [28] 78.8% | viability, T/C [29] 69.5% | viability, T/C [30] 67.9% | viability, T/C [31] 0.42% | viability, T/C [32] 20.2% | viability, T/C [33] 52.3% | viability, T/C [34] 41.7% | viability, T/C [35] 0.43% | viability, T/C [36] 0.33%
> 10000 nM: IC50 (second compound 0.0316 µM) | IC50 (second compound 0.1 µM) | IC50 (second compound 0.316 µM) | IC50 (second compound 1 µM) | IC50 (second compound 3.16 µM)
< 31.6 nM: IC50 (second compound 10 µM)
